ChEMBL document CHEMBL1157603, “Structural insights into the design of small molecule inhibitors that selectively antagonize Mcl-1” (J Med Chem, 2010)

Columns and labels:
Bcl-2-like protein 1 [1] = target: T1, Bcl-2-like protein 1 (Homo sapiens, UniProt Q07817); experiment: Displacement of fluorescein-labeled Bak-BH3 peptide from human Bcl-XL by fluorescence polarization assay
[2] = target: T2, Induced myeloid leukemia cell differentiation protein Mcl-1 (Homo sapiens, UniProt Q07820); experiment: Displacement of fluorescein-labeled Bak-BH3 peptide from human Mcl1 by fluorescence polarization assay
T2 sequence (Q07820 whole entry): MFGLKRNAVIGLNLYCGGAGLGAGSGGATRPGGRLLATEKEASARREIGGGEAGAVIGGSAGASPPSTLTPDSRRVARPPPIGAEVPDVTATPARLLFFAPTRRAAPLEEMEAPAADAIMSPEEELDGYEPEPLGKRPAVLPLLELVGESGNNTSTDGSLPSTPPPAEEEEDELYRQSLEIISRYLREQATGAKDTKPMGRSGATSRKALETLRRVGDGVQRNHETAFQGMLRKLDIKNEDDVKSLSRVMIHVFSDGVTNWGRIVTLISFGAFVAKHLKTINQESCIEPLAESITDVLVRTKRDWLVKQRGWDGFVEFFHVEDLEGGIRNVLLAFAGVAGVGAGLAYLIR

Bcl-2-like protein 1 [3] = target: T1, Bcl-2-like protein 1; experiment: Binding affinity to human Bcl-XL by isothermal titration calorimetry
[4] = target: T2, Induced myeloid leukemia cell differentiation protein Mcl-1; experiment: Binding affinity to human Mcl1 by isothermal titration calorimetry

T1 sequence (Q07817 whole entry): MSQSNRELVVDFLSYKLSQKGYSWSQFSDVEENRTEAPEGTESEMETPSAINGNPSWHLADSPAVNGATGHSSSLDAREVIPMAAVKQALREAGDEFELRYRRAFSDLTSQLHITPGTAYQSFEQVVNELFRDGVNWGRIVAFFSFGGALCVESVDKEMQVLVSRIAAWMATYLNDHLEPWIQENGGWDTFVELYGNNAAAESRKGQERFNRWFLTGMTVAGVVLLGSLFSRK

| Ki (Bcl-2-like protein 1 [1]) [µM] | Ki [2] [µM] | Kd (Bcl-2-like protein 1 [3]) [µM] | Kd [4] [µM] | SMILES |
| --- | --- | --- | --- | --- |
| 10 | 44 | 8.7 | 84 | CC(C)C(C(=O)O)N1C(=O)/C(=C/c2ccc(Br)cc2)SC1=S (configuration not stated) |
| > 100 | 8 | > 750 | 10 | COc1ccc(-c2ccc(/C=C3\SC(=S)N([C@@H](Cc4ccccc4)C(=O)O)C3=O)cn2)cc1OC |
| 3.7 | 6.9 | 3.4 | 0.25 | COc1cccc(-c2ccc(/C=C3\SC(=S)N([C@@H](Cc4ccccc4)C(=O)O)C3=O)cn2)c1OC |
